From article PMC11206290, “Study of the Lipophilicity and ADMET Parameters of New Anticancer Diquinothiazines with Pharmacophore Substituents” (Pharmaceuticals, 2024)

Experiments:
[1] = RP-TLC lipophilicity (RP-18 plates, acetone–TRIS buffer pH 7.4); conditions: for C0: C0 = −RM0/b; for RM0: RP-18, acetone–TRIS buffer pH 7.4, extrapolated to zero acetone concentration; for b / -b: slope of RM = RM0 + bC; for b: compounds 1–15; for -b: standards I–V
Method: (§1) RP-18 plates were used as the stationary phase, while organic modifiers containing acetone were used as the mobile phase. The linear relationship between RM0 and acetone concentration was determined on the basis of Equation (2) (Table 2). In addition to this, thanks to the relationship observed between RM0 and the slope of these linear plots (b), the lipophilicity parameter C0 was also determined (Table 2).
(§2) All chromatographic experiments were performed on a silica gel 60 RP-18 F254S (10 cm × 10 cm) RP-TLC plate (Merck, Darmstadt, Germany). The mobile phase was prepared by mixing the respective amount of aqueous TRIS (tris(hydroxymethyl)aminomethane) buffer, pH = 7.4 (ionic strength 0.2 M), to meet physiological conditions and acetone in a range from 50 to 80% (v/v) in increments of 5%. […] Before plate development, the chromatographic chambers were saturated with the mobile phase for 0.5 h. […] Each chromatographic experiment was run in triplicate, and then mean values of the retardation factor, i.e., RF values, were used to determine the RMW values of the compounds.
(§3) Next, the chromatographic data in the form of RM0 and coefficient b were used to calculate the lipophilicity parameter C0 [56] from the following Equation (3):(3) C0=−RM0/b

[2] = physchem
Method: as §1, §2, §3

[3] = tested on: non-small lung carcinoma H1299; set-up: method as in PMID 36014495; conditions: H1299 ref 25; cited from earlier work
[4] = tested on: BEAS-2B cells; set-up: method as in PMID 36014495; conditions: BEAS-2B cells at IC50 doses against A549 or H1299 cells ref 25; cited from earlier work
[5] = tested on: NHDF cells; set-up: method as in PMID 36014495; conditions: NHDF cells at IC50 doses against A549 or H1299 cells ref 25; cited from earlier work
[6] = tested on: lung cancer A549 cell line; set-up: method as in PMID 30981160; conditions: A549 cell line ref 24; cited from earlier work
[7] = tested on: human lung carcinoma A549; set-up: method as in PMID 36014495; conditions: A549 ref 25; cited from earlier work
[8] = tested on: BAX expression; set-up: method as in PMID 30981160; conditions: RT-QPCR, cancer cell lines ref 24; cited from earlier work
[9] = tested on: glioblastoma SNB-19 cell line; set-up: method as in PMID 30981160; conditions: SNB-19 cell line ref 24; cited from earlier work
[10] = tested on: BCL-2 expression; set-up: method as in PMID 30981160; conditions: RT-QPCR, A549 and SNB-19 ref 24; cited from earlier work

SMILES | C0 [1] | RM0 [1] | b [1] | chromatographic logP [2] | other results
CCN(CC)CCN1c2cnc3ccccc3c2Sc2cc3ccccc3nc21 [Compound 1, 7-(2'-Diethylaminoethyl)diquino[3,2-b;3 ',4'-e]thiazine] | 0.7233 | 3.45 | −4.77 | 4.64 | 
CN(C)CCCN1c2cnc3ccccc3c2Sc2cc3ccccc3nc21 [Compound 2, 7-(3'-Dimethylaminopropyl)diquino[3,2-b;3 ',4'-e]thiazine] | 0.7359 | 3.01 | −4.09 | 4.08 | In vitro anticancer activity [3]: significant in vitro anticancer activity; Lethal effect [4]: weak lethal effect; Lethal effect [5]: weak lethal effect; IC50 [6]: 300 nM; In vitro anticancer activity [7]: significant in vitro anticancer activity
c1ccc2nc3c(cc2c1)Sc1c(cnc2ccccc12)N3CCN1CCCC1 [Compound 3, 7-(1'-Pyrolidinylethyl)diquino[3,2-b;3 ',4'-e]thiazine] | 0.7210 | 3.05 | −4.23 |  | 
c1ccc2nc3c(cc2c1)Sc1c(cnc2ccccc12)N3CCN1CCCCC1 [Compound 4, 7-(1'-Piperidinylethyl)diquino[3,2-b;3 ',4'-e]thiazine] | 0.7117 | 3.48 | −4.89 | 4.68 | 
CN1CCCCC1CCN1c2cnc3ccccc3c2Sc2cc3ccccc3nc21 (stereo not drawn) [Compound 5, 7-(1'-M ethyl-2 '-piperydinylethyl)diquino[3,2-b;3 ',4'-e]thiazine] | 0.7082 | 3.64 | −5.14 | 4.89 | 
CCN(CC)CCN1c2ccc3ncccc3c2Sc2cc3ccccc3nc21 [Compound 6, 7-(2'-Diethylaminoethyl)diquino[3,2-b;6 ',5'-e]thiazine] | 0.7588 | 3.68 | −4.85 | 4.94 | 
CN(C)CCCN1c2ccc3ncccc3c2Sc2cc3ccccc3nc21 [Compound 7, 7-(3'-Dimethylaminopropyl)diquino[3,2-b;6 ',5'-e]thiazine] | 0.7627 | 3.31 | −4.34 | 4.46 | 
c1ccc2nc3c(cc2c1)Sc1c(ccc2ncccc12)N3CCN1CCCC1 [Compound 8, 7-(1'-Pyrolidinylethyl)diquino[3,2-b;6 ',5'-e]thiazine] | 0.7565 | 3.48 | −4.60 |  | Expression of BAX [8]: markedly reduced; IC50 [9]: 300 nM; Expression of BCL-2 [10]: markedly reduced
c1ccc2nc3c(cc2c1)Sc1c(ccc2ncccc12)N3CCN1CCCCC1 [Compound 9, 7-(1'-Piperidinylethyl)diquino[3,2-b;6 ',5'-e]thiazine] | 0.7562 | 3.69 | −4.88 | 4.95 | 
CN1CCCCC1CCN1c2ccc3ncccc3c2Sc2cc3ccccc3nc21 (stereo not drawn) [Compound 10, 7-(1'-M ethyl-2 '-piperydinylethyl)diquino[3,2-b;6 ',5'-e]thiazine] | 0.7599 | 3.83 | −5.04 | 5.13 | 
CCN(CC)CCN1c2nc3ccccc3cc2Sc2ccc3cccnc3c21 [Compound 11, 14-(2'-Diethylaminoethyl)diquino[3,2-b;8 ',7'-e]thiazine] | 0.7579 | 3.60 | −4.75 | 4.84 | 
CN(C)CCCN1c2nc3ccccc3cc2Sc2ccc3cccnc3c21 [Compound 12, 14-(3'-Dimethylaminopropyl)diquino[3,2-b;8 ',7'-e]thiazine] | 0.7458 | 3.17 | −4.25 | 4.28 | 
c1ccc2nc3c(cc2c1)Sc1ccc2cccnc2c1N3CCN1CCCC1 [Compound 13, 14-(1'-Pyrolidinylethyl)diquino[3,2-b;8 ',7'-e]thiazine] | 0.7672 | 3.23 | −4.21 | 4.36 | 
c1ccc2nc3c(cc2c1)Sc1ccc2cccnc2c1N3CCN1CCCCC1 [Compound 14, 14-(1'-Piperidinylethyl)diquino[3,2-b;8 ',7'-e]thiazine] | 0.7697 | 3.61 | −4.69 | 4.85 | 
CN1CCCCC1CCN1c2nc3ccccc3cc2Sc2ccc3cccnc3c21 (stereo not drawn) [Compound 15, 14-(1'-M ethyl-2 '-piperydinylethyl)diquino[3,2-b;8 ',7'-e]thiazine] | 0.7625 | 3.82 | −5.01 | 5.12 | 
CC(=O)Nc1ccccc1 [Standard I, acetanilide, reference compound] |  | 0.78 |  |  | 
O=C(O)c1ccccc1 [Standard II, benzoic acid, reference compound] |  | 1.16 |  |  | -b [1]: 0.0247
c1ccc2cc3ccccc3cc2c1 [Standard IV, anthracene, reference compound] |  | 3.33 |  |  | -b [1]: 0.0412
Clc1ccc(C(c2ccc(Cl)cc2)C(Cl)(Cl)Cl)cc1 [Standard V, p,p′-DDT, reference compound] |  | 4.69 |  |  | 
